Values of other authors in EP2691395B1, “PROCESSES FOR PREPARING TOFACITINIB SALTS” (ratiopharm GmbH, priority 2011, dated 2012).

conditions: acids listed as possible first acid

Row | SMILES | pKa
1 | CC(O)CC(=O)O (stereo not drawn) [3-hydroxybutanoic acid] | about 4.70
2 | O=C(O)CCO [3-hydroxypropanoic acid] | about 4.51
3 | CC(=O)Nc1ccc(C(=O)O)cc1 [4-acetamidobenzoic acid] | about 4.3
4 | O=C(O)CCCO [4-hydroxybutanoic acid] | about 4.72
5 | CC1(C(=O)O)CCC(C(=O)O)C1(C)C (stereo not drawn) [(+)-camphoric acid] | about 4.72
6 | O=C(O)[C@H](O)[C@@H](O)[C@H](O)[C@H](O)CO [D-gluconic acid] | about 3.76
7 | CCCCCCCC(=O)O [caprylic or octanoic acid] | about 4.91
8 | O=C(O)O [carbonic acid] | about 6.46
9 | O=C(O)/C=C\c1ccccc1 [cis-cinnamic acid] | about 3.89
10 | O=C(O)CCCC(=O)O [glutaric acid] | about 4.31
11 | CCCCCC(=O)O [hexanoic or caproic acid] | about 4.85
12 | O=C(O)CNC(=O)c1ccccc1 [hippuric acid] | about 3.55
13 | CCCCCCCCCCCC(=O)O [lauric acid] | about 4.9
14 | O=C(O)c1cccc(O)c1 [m-hydroxybenzoic acid] | about 4.06
15 | CC(CC(=O)O)C(=O)O (stereo not drawn) [methylsuccinic acid] | about 4.13
16 | CCCCCCCC/C=C\CCCCCCCC(=O)O [oleic acid] | about 4
17 | O=C(O)c1cc(=O)[nH]c(=O)[nH]1 [orotic acid] | about 5.85
18 | O=C(O)c1ccc(O)cc1 [p-hydroxybenzoic acid] | about 4.48
19 | CCCCCCCCCCCCCCCC(=O)O [palmitic acid] | about 4.9
20 | CCCCC(=O)O [pentanoic acid] | about 4.84
21 | O=C(O)Cc1ccccc1 [phenylacetic acid] | about 4.28
22 | CCCCCCCCCCCCCCCCCC(=O)O [stearic acid] | about 4.9
23 | C=CCCCCCCCCC(=O)O [undecylenic acid] | about 4.9
24 | O=c1[nH]c(=O)c2[nH]c(=O)[nH]c2[nH]1 [uric acid] | about 3.89
